One data set relates to HDAC. Briefly: Fluor de Lys fluorometric assay of HDAC activity in PC3 cells. It is filed as cell-based, human. Conditions: for HDAC activity (relative to controls): 24 h. On the procedure:
Briefly 20×10^3 cells/well were seeded in 96 well plates and incubated for 24 h with (a) 1 mM BLT (b) FSAHA at 2, 5, 10 μM (c) SAHA at 2, 5, 10 μM (d) FSAHA at 2, 5, 7, 8, 9, 10 μM in the presence of 1 mM BLT (e) FSAHA at 2, 5, 7, 8, 9, 10 μM in the presence of vehicle (DMSO). The Fluor de Lys substrate was then added for 1 h, medium removed, cells rinsed with PBS and incubated for 10 minutes with the Fluor-de-Lys developer, and fluorescence read at 460 nm using the Tecan microplate reader as above. Results were normalized to cell density as determined using the WST-1 assay in the same 96 well plate.

The test system of data set [1] is PC3 cells. Briefly: 19F MRS of PC3 cell extracts (intracellular BLT, TFA, FSAHA). To be noted: for Intracellular BLT level: 24 h. It is filed as cell-based, human. The procedure:
For MRS studies, PC3 cells were treated for 24 h with FSAHA at 2, 5, 7, 8, 9 and 10 μM in the presence of 1 mM BLT or with 1 mM BLT alone. Approximately 1×10^7-1.5×10^7 cells were then extracted using the dual phase extraction method as previously described (Chung Y L, Troy H, Banerji U, et al. Magnetic resonance spectroscopic pharmacodynamic markers of the heat shock protein 90 inhibitor 17-allylamino, 17-demethoxygeldanamycin (17AAG) in human colon cancer models. J Natl Cancer Inst 2003 November 5;95(21):1624-33, Tyagi R K, Azrad A, Degani H, Salomon Y. Simultaneous extraction of cellular lipids and water-soluble metabolites: evaluation by NMR spectroscopy. Magn Reson Med 1996 February;35(2):194-200.47). Briefly, cells were extensively rinsed with ice-cold saline to remove any residual extracellular BLT and medium. Cells were then fixed in 10 ml of ice-cold methanol, scraped off the surface of the culture flask, collected into glass tubes and vortexed. 10 ml of ice-cold chloroform was then added followed by 10 ml of ice-cold de-ionized water. Following phase separation and solvent removal the water-soluble fraction was reconstituted in 250 μl of deuterium oxide (D2O) and 250 μl of DMSO for ^19F MR measurements. To perform the ^31P MR measurement 100 μl of EDTA and 50 μl methylene diphosphonic acid (MDPA) in D2O were added to a final concentration of 10 mM and 0.35 mM respectively. The number of cells extracted was determined by counting a separate flask of cells. ^19F MR spectra of the water-soluble metabolites were recorded as above. Metabolite concentrations were determined by integration and comparison with the area of the external C6F6 reference, normalizing to cell number and correcting for saturation effects. Correction for saturation effects was achieved by also acquiring a quantitative inverse gated fully relaxed spectrum on two different samples and calculating the correction factors which need to be applied to the partially relaxed spectra. It was determined that the T1 relaxation of BLT is 1 s and that of C6F6 is 3 s. The fully relaxed spectrum was therefore acquired using a 90 deg. flip angle and a 15 s relaxation delay (5 times the longest T1). ^31P MR spectra were recorded on an Avance DRX500 Bruker spectrometer (Bruker Biospin Germany) using a 30 deg. flip angle and 3 s relaxation delay. Metabolite concentrations were determined by integration and comparison with the area of the internal MDPA reference, normalizing to cell number and correcting for saturation effects (correction factors were determined as above by acquiring a fully relaxed quantitative spectrum using a 90 deg. flip angle and a 30 s relaxation delay).
To monitor the fluorinated metabolites, the lipid phase was reconstituted in 500 μl CDCl3. To monitor the fluorinated metabolites in cellular protein, the protein pellet obtained during cell extraction was dissolved in 1 ml of 0.5 M NaOH and heated to 60° C. for 1 h. Samples were then analyzed by ^19F MRS as above.

The subject of data set [2] is PC3 cells. Description: 31P MRS of PC3 cell extracts (phosphocholine). It counts as cell-based, human. Conditions: 24 h. The procedure: For MRS studies, PC3 cells were treated for 24 h with FSAHA at 2, 5, 7, 8, 9 and 10 μM in the presence of 1 mM BLT or with 1 mM BLT alone. […] The number of cells extracted was determined by counting a separate flask of cells. ^19F MR spectra of the water-soluble metabolites were recorded as above. Metabolite concentrations were determined by integration and comparison with the area of the external C6F6 reference, normalizing to cell number and correcting for saturation effects. Correction for saturation effects was achieved by also acquiring a quantitative inverse gated fully relaxed spectrum on two different samples and calculating the correction factors which need to be applied to the partially relaxed spectra. It was determined that the T1 relaxation of BLT is 1 s and that of C6F6 is 3 s. The fully relaxed spectrum was therefore acquired using a 90 deg. flip angle and a 15 s relaxation delay (5 times the longest T1). ^31P MR spectra were recorded on an Avance DRX500 Bruker spectrometer (Bruker Biospin Germany) using a 30 deg. flip angle and 3 s relaxation delay. […]

Data set [3] relates to PC3 human prostate cancer cells. Description: WST-1 cell proliferation assay. It is filed as cell-based. On the procedure: PC3 human prostate cancer cells were routinely cultured in DMEM/F12 (Gibco NY USA) supplemented with 10% FCS (Hyclone, Utah USA) and 10,000 U/mL penicillin 10,000 μg/mL streptomycin and […] amphtenicin B (Gibco, NY USA) at 37° C. in 5% CO2.
To assess the effect on cell proliferation of BLT the colorimetric WST-1 cell proliferation assay (Roche USA) was used and manufacturer instructions followed. Briefly, 20×10^3 cells/well were seeded in 96 well plates. Cells were then treated for 24 hours with BLT at 5 μM, 10 μM, 20 μM, 50 μM, 100 μM, 200 μM, 500 μM, 1 mM, 2 mM, 5 mM and 10 mM or with matched DMSO (1.20,000 to 1.10). Subsequently cells were incubated for 4 hours with the WST-1 cell proliferation reagent and absorbance read at 440 nm using a Tecan Freedom Evo liquid handler equipped with the SAFIRE monochromator-based microplate reader (Tecan U.S., NC, USA).
Note that controls were treated with DMSO in order to clearly identify effects which are due to the compound being investigated rather than its vehicle (DMSO). FSAHA dose was based on previous findings (Butler L M, Agus D B, Scher H I, et al. Suberoylanilide hydroxamic acid, an inhibitor of histone deacetylase, suppresses the growth of prostate cancer cells in vitro and in vivo. Cancer Res 2000 September 15;60(18):5165-70).
In general terms: Tetrazolium assays rely on reduction of a dye to a coloured formazan, in cell work by metabolically active cells.

Setting [4] is: PC3 control cells, 1 mM BLT alone.
[5] abbreviates: 2 μM in the presence of 1 mM BLT.
Setting [6] is: 5 μM in the presence of 1 mM BLT.
Setting [7] is: 10 μM in the presence of 1 mM BLT.
[8] abbreviates: PC3 cells, 10 μM FSAHA in the presence of 1 mM BLT.

Values joined by “and” are separate entries in the source; they are usually repeats but may differ in a detail not shown here. Equal entries are not always repeated. Structures can show the parent of a compound that is named as a salt.

In the case of `CC(C)(C)OC(=O)N[C@@H](CCCCNC(=O)C(F)(F)F)C(=O)O` [BLT, Boc-Lys-TFA-OH], the “HDAC activity levels relative to DMSO-treated controls” value with HDAC (24 hours, 1 mM) worked out at 102±9%. Also, in the data set with PC3 cells [1] (PC3 cells, 1 mM BLT alone (control cells)), the “Intracellular BLT level” value is 14±4 fmol/cell and 14 fmol/cell. Besides, the “Intracellular TFA concentration” value with PC3 cells [1] (setting [4]) was 1.1±0.6 fmol/cell. In the data set on PC3 cells [2] (setting [4]), the “Phosphocholine (PC) level” value is 7±1 fmol/cell and 7 fmol/cell. Besides, the “Effect on cell proliferation compared to matched DMSO controls” value in data set [3] (5 μM to 10 mM, 24 hours) is recorded as “did not significantly affect cell proliferation”. For the same molecule, the activity at 1000 µM in data set [3] (Homo sapiens, PC-3, 24-hour treatment with 1 mM BLT, read-out: Cell numbers, % of controls) was determined as 95 ± 4%.

Take `O=C(CCCCCCC(=O)Nc1ccc(F)cc1)NO` [FSAHA, 4-Fluorosuberanilohydroxamic acid]: the “HDAC activity (relative to controls)” value in the data set on HDAC (2 μM) was 93±16%; with HDAC (setting [5]) it was 88±12%; with HDAC (5 μM), 58±14%; in the data set on HDAC (setting [6]), 69±9%; in the data set with HDAC (10 μM), 41±8%; in the data set with HDAC (setting [7]), 53±5% and 53%. In addition, the “Average increase of intracellular BLT” value in the data set with PC3 cells [1] (10 μM FSAHA-treated PC3 cells) came out at 18 fmol/cell. In addition, the “Intracellular TFA concentration” value with PC3 cells [1] (setting [8]) is 1±1 fmol/cell. The “Intracellular BLT level” value in the data set on PC3 cells [1] (setting [8]) was 32±4 fmol/cell and 32 fmol/cell. For the same molecule, in the data set with PC3 cells [2] (setting [8]), the “Phosphocholine (PC) level” value is 16±2 fmol/cell and 16 fmol/cell and 15 fmol/cell. Moreover, the “Cell proliferation relative to control” value in data set [3] (2 μM) was 87±5%; in data set [3] (setting [5]), 86±1%; in data set [3] (5 μM), 79±3%; in data set [3] (setting [6]) it was 77±7%; in data set [3] (10 μM), 66±6%; in data set [3] (setting [7]) it was 63±2%.

For the origin of these results see patent US20100062465A1, “Detection of Histone Deacetylase Inhibition” (priority 2006, published 2010).
